Results reported in paper PMC10720709, “Design, synthesis, and evaluation of 4-(3-(3,5-dimethylisoxazol-4-yl)benzyl)phthalazin-1(2H)-one derivatives: potent BRD4 inhibitors with anti-breast cancer activity” (Frontiers in Pharmacology, 2023).

Assays:
[1] = target: T1, recombinant BRD4 (BD1 + BD2) (Homo sapiens, UniProt O60885); assay: BRD4 TR-FRET activity assay; type: binding; conditions: 1 μmol/L; read-out: BRD4 inhibition rate;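 note: signal rises with BET ligand binding to the bromodomains, so inhibitors lower it, 120 min incubation at room temperature, 1% DMSO, wells lacking ligand as negative control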
T1 construct: employing a recombinant BRD4 (BD1 + BD2) and its corresponding ligand
Method: The BRD4 activity assay utilized TR-FRET technology, employing a recombinant BRD4 (BD1 + BD2) and its corresponding ligand. The TR-FRET signal generated in the assay is proportional to the ligand’s binding to the bromodomains. All reactions contained a final DMSO concentration of 1%. All binding reactions were conducted at room temperature. Each 20 µL reaction mixture, in assay buffer, comprised bromodomains, the BET Ligand, and the specified inhibitor amount. For the negative control, 5 µL of assay buffer replaced the BET ligand. After a 120-min incubation with the ligand, the TR-FRET signal was captured using a Tecan Infinite M1000 plate reader. IC50 values were determined through nonlinear regression with a normalized dose-response fit in Prism GraphPad software.

SMILES	inhibition at 1 µM [1]	melting point
Cc1noc(C)c1-c1cc(Cc2n[nH]c(=O)c3ccccc23)cc(C(N)=O)c1 [DDT01]	15%	
CNC(=O)c1cc(Cc2n[nH]c(=O)c3ccccc23)cc(-c2c(C)noc2C)c1 [DDT02]	5%	> 250 °C
Cc1noc(C)c1-c1cc(Cc2n[nH]c(=O)c3ccccc23)cc(C(=O)NC2CCCC2)c1 [DDT03]	67%	> 250 °C
Cc1noc(C)c1-c1cc(Cc2n[nH]c(=O)c3ccccc23)cc(C(=O)NC2CCCCC2)c1 [DDT04]	56%	178 to 179 °C
Cc1noc(C)c1-c1cc(Cc2n[nH]c(=O)c3ccccc23)cc(C(=O)Nc2ccccc2)c1 [DDT05]	35%	192 to 193 °C
Cc1noc(C)c1-c1cc(Cc2n[nH]c(=O)c3ccccc23)cc(C(=O)NCc2ccccc2)c1 [DDT06]	4%	
Cc1noc(C)c1-c1cc(Cc2n[nH]c(=O)c3ccccc23)cc(C(=O)NCc2cccnc2)c1 [DDT07]	8%	> 250 °C
Cc1noc(C)c1-c1cc(Cc2n[nH]c(=O)c3ccccc23)cc(C(=O)NC2CCOCC2)c1 [DDT08]	11%	
Cc1noc(C)c1-c1cc(Cc2n[nH]c(=O)c3ccccc23)cc(C(=O)NC2CCS(=O)(=O)CC2)c1 [DDT09]	4%	
Cc1noc(C)c1-c1cc(Cc2n[nH]c(=O)c3ccccc23)cc(C(=O)N[C@H]2CC[C@H](O)CC2)c1 [DDT10]	36%	199 to 200 °C
Cc1noc(C)c1-c1cc(Cc2n[nH]c(=O)c3ccccc23)cc(C(=O)N[C@H]2CC[C@@H](O)CC2)c1 [DDT11]	54%	214 to 215 °C
Cc1noc(C)c1-c1cc(Cc2n[nH]c(=O)c3ccccc23)cc(C(=O)N2CCC(=O)C2)c1 [DDT12]	38%	241 to 243 °C
Cc1noc(C)c1-c1cc(Cc2n[nH]c(=O)c3ccccc23)cc(C(=O)N2CC[C@@H](O)C2)c1 [DDT13]	71%	
Cc1noc(C)c1-c1cc(Cc2n[nH]c(=O)c3ccccc23)cc(C(=O)N2CCNCC2)c1 [DDT15]	59%	
Cc1noc(C)c1-c1cc(Cc2n[nH]c(=O)c3ccccc23)cc(C(=O)N2CCOCC2)c1 [DDT16]	71%	241 to 242 °C
Cc1noc(C)c1-c1cc(Cc2n[nH]c(=O)c3ccccc23)cc(C(=O)N2CCN(C(=O)C3CC3)CC2)c1 [DDT17]	16%	154 to 155 °C
Cc1noc(C)c1-c1cc(Cc2n[nH]c(=O)c3ccccc23)cc(C(=O)N2CCn3nc(C(F)(F)F)nc3C2)c1 [DDT18]	37%	161 to 162 °C
Cc1noc(C)c1-c1cc(Cc2n[nH]c(=O)c3ccccc23)cc(C(=O)N2CCC[C@H](O)C2)c1 [DDT19]	11%	157 to 158 °C
Cc1noc(C)c1-c1cc(Cc2n[nH]c(=O)c3ccccc23)cc(C(=O)N2CCC[C@@H](O)C2)c1 [DDT20]	4%	
Cc1noc(C)c1-c1cc(Cc2n[nH]c(=O)c3ccccc23)cc(C(=O)N2CCC(O)CC2)c1 [DDT21]	19%	176 to 177 °C
Cc1noc(C)c1-c1cc(Cc2n[nH]c(=O)c3ccccc23)cc(NC(=O)c2ccccc2)c1 [DDT22]	64%	173 to 174 °C
Cc1noc(C)c1-c1cc(Cc2n[nH]c(=O)c3ccccc23)cc(NC(=O)c2cccc(C(F)(F)F)c2)c1 [DDT27]	60%	231 to 232 °C

SMILES	inhibition at 1 µM [1]	melting point
Cc1noc(C)c1-c1cc(Cc2n[nH]c(=O)c3ccccc23)cc(NC(=O)c2ccc(C(F)(F)F)cc2)c1 [DDT28]	54%	
Cc1noc(C)c1-c1cc(Cc2n[nH]c(=O)c3ccccc23)cc(NC(=O)c2cccc([N+](=O)[O-])c2)c1 [DDT29]	65%	> 250 °C
Cc1noc(C)c1-c1cc(Cc2n[nH]c(=O)c3ccccc23)cc(NC(=O)c2ccc([N+](=O)[O-])cc2)c1 [DDT30]	74%	
Cc1noc(C)c1-c1cc(Cc2n[nH]c(=O)c3ccccc23)cc(NC(=O)c2cccc(N)c2)c1 [DDT31]	71%	236 to 237 °C
Cc1noc(C)c1-c1cc(Cc2n[nH]c(=O)c3ccccc23)cc(NC(=O)c2ccc(N)cc2)c1 [DDT32]	54%	188 to 189 °C
Cc1noc(C)c1-c1cc(Cc2n[nH]c(=O)c3ccccc23)cc(NCc2ccccc2)c1 [DDT33]	3%	230 to 231 °C
Cc1noc(C)c1-c1cc(Cc2n[nH]c(=O)c3ccccc23)cc(NCc2cccc(F)c2)c1 [DDT34]	3%	
Cc1noc(C)c1-c1cc(Cc2n[nH]c(=O)c3ccccc23)cc(NCc2ccc(F)cc2)c1 [DDT35]	3%	
Cc1noc(C)c1-c1cc(Cc2n[nH]c(=O)c3ccccc23)cc(NCc2cccc([N+](=O)[O-])c2)c1 [DDT36]	3%	229 to 230 °C
Cc1noc(C)c1-c1cc(Cc2n[nH]c(=O)c3ccccc23)cc(NCc2ccc([N+](=O)[O-])cc2)c1 [DDT37]	8%	
Cc1noc(C)c1-c1cc(Cc2n[nH]c(=O)c3ccccc23)cc(NCc2cccc(Cl)c2)c1 [DDT38]	8%	235 to 236 °C
Cc1noc(C)c1-c1cc(Cc2n[nH]c(=O)c3ccccc23)cc(NCc2ccc(Cl)cc2)c1 [DDT39]	16%	200 to 201 °C
Cc1noc(C)c1-c1cc(Cc2n[nH]c(=O)c3ccccc23)cc(NCc2cccc(Br)c2)c1 [DDT40]	3%	235 to 236 °C
Cc1noc(C)c1-c1cc(Cc2n[nH]c(=O)c3ccccc23)cc(NCc2ccc(Br)cc2)c1 [DDT41]	17%	200 to 201 °C
Cc1noc(C)c1-c1cc(Cc2n[nH]c(=O)c3ccccc23)cc(NCc2ccc(Br)cc2F)c1 [DDT42]	3%	
Cc1noc(C)c1-c1cc(Cc2n[nH]c(=O)c3ccccc23)cc(NCc2ccc(F)c(Br)c2)c1 [DDT43]	4%	> 250 °C
Cc1cccc(CNc2cc(Cc3n[nH]c(=O)c4ccccc34)cc(-c3c(C)noc3C)c2)c1 [DDT44]	3%	
Cc1ccc(CNc2cc(Cc3n[nH]c(=O)c4ccccc34)cc(-c3c(C)noc3C)c2)cc1 [DDT45]	7%	215 to 216 °C
Cc1noc(C)c1-c1cc(Cc2n[nH]c(=O)c3ccccc23)cc(NCc2ccc(C(F)(F)F)cc2)c1 [DDT46]	39%	220 to 221 °C
CCS(=O)(=O)Nc1cc(Cc2n[nH]c(=O)c3ccccc23)cc(-c2c(C)noc2C)c1 [DDT50]	69%	195 to 196 °C
CCCS(=O)(=O)Nc1cc(Cc2n[nH]c(=O)c3ccccc23)cc(-c2c(C)noc2C)c1 [DDT51]	4%	165 to 166 °C
CCCCS(=O)(=O)Nc1cc(Cc2n[nH]c(=O)c3ccccc23)cc(-c2c(C)noc2C)c1 [DDT52]	6%	147 to 148 °C

SMILES	inhibition at 1 µM [1]	melting point
COCCS(=O)(=O)Nc1cc(Cc2n[nH]c(=O)c3ccccc23)cc(-c2c(C)noc2C)c1 [DDT53]	9%	181 to 182 °C
Cc1noc(C)c1-c1cc(Cc2n[nH]c(=O)c3ccccc23)cc(NS(=O)(=O)C(C)C)c1 [DDT54]	3%	
Cc1noc(C)c1-c1cc(Cc2n[nH]c(=O)c3ccccc23)cc(NS(=O)(=O)C2CC2)c1 [DDT55]	32%	140 to 141 °C
Cc1noc(C)c1-c1cc(Cc2n[nH]c(=O)c3ccccc23)cc(NS(=O)(=O)C2CCCCC2)c1 [DDT56]	24%	
Cc1noc(C)c1-c1cc(Cc2n[nH]c(=O)c3ccccc23)cc(NS(=O)(=O)c2ccccc2)c1 [DDT57]	36%	
Cc1cccc(S(=O)(=O)Nc2cc(Cc3n[nH]c(=O)c4ccccc34)cc(-c3c(C)noc3C)c2)c1 [DDT58]	71%	
Cc1ccc(S(=O)(=O)Nc2cc(Cc3n[nH]c(=O)c4ccccc34)cc(-c3c(C)noc3C)c2)cc1C [DDT61]	49%	
Cc1noc(C)c1-c1cc(Cc2n[nH]c(=O)c3ccccc23)cc(NS(=O)(=O)c2ccc(C(C)C)cc2)c1 [DDT64]	69%	
Cc1ccc(S(=O)(=O)Nc2cc(Cc3n[nH]c(=O)c4ccccc34)cc(-c3c(C)noc3C)c2)cn1 [DDT66]	8%	
COc1ccccc1S(=O)(=O)Nc1cc(Cc2n[nH]c(=O)c3ccccc23)cc(-c2c(C)noc2C)c1 [DDT67]	24%	
Cc1noc(C)c1-c1cc(Cc2n[nH]c(=O)c3ccccc23)cc(NS(=O)(=O)c2ccc3c(c2)OCCO3)c1 [DDT71]	67%	
CC(=O)Nc1ccc(S(=O)(=O)Nc2cc(Cc3n[nH]c(=O)c4ccccc34)cc(-c3c(C)noc3C)c2)cc1 [DDT73]	38%	
Cc1noc(C)c1-c1cc(Cc2n[nH]c(=O)c3ccccc23)cc(NS(=O)(=O)Cc2ccccc2)c1 [DDT76]	50%	
Cc1ccc(CS(=O)(=O)Nc2cc(Cc3n[nH]c(=O)c4ccccc34)cc(-c3c(C)noc3C)c2)cc1 [DDT78]	55%	
Cc1noc(C)c1-c1cc(Cc2n[nH]c(=O)c3ccccc23)cc(NS(=O)(=O)c2cccc(C(F)(F)F)c2)c1 [DDT81]	20%	
Cc1noc(C)c1-c1cc(Cc2n[nH]c(=O)c3ccccc23)cc(NS(=O)(=O)c2ccc([N+](=O)[O-])cc2)c1 [DDT83]	28%	
Cc1noc(C)c1-c1cc(Cc2n[nH]c(=O)c3ccccc23)cc(NS(=O)(=O)c2ccccc2F)c1 [DDT84]	14%	
Cc1noc(C)c1-c1cc(Cc2n[nH]c(=O)c3ccccc23)cc(NS(=O)(=O)c2cccc(F)c2)c1 [DDT85]	5%	
Cc1noc(C)c1-c1cc(Cc2n[nH]c(=O)c3ccccc23)cc(NS(=O)(=O)c2ccc(Cl)cc2Cl)c1 [DDT90]	4%	
Cc1noc(C)c1-c1cc(Cc2n[nH]c(=O)c3ccccc23)cc(NS(=O)(=O)c2ccc(Br)cc2)c1 [DDT93]	26%	
